For two compounds, Activity, EC50 and Ratio EC50 results are on record in ChEMBL document CHEMBL5532661, “Discovery of a Novel Glucagon-like Peptide-1 (GLP-1) Analogue from Bullfrog and Investigation of Its Potential for Designing GLP-1-Based Multiagonists” (J Med Chem, 2024).

The subject of test [1] is Mus musculus. Briefly: Reduction in serum AST level in DIO mouse at 30 nmol/kg, sc treated twice a day measured after 21 days. Type of test: functional, organism-based. Particulars: time 21.0 day.
Test [2] has as its system Mus musculus. As to the kind of experiment: Reduction in feed intake in DIO mouse at 30 nmol/kg, sc treated twice a day measured after 21 days. As to conditions: time 21.0 day. The format is functional, organism-based.
The subject of test [3] is Mus musculus. Briefly: Reduction in body weight in DIO mouse at 30 nmol/kg, sc treated twice a day measured after 21 days. The format is functional. Set-up: scale not given: the % may be the effect or the level left. As to conditions: time 21 day.
Test [4] has as its system Mus musculus. As to the kind of experiment: Anorexigenic effect in ICR mouse assessed as decrease in food intake at 30 nmol/kg, sc measured upto 72 hrs by acute food intake study. The format is functional, organism-based.
In test [5] the test system is Mus musculus. As to the kind of experiment: Reduction in serum ALT level in DIO mouse at 30 nmol/kg, sc treated twice a day measured after 21 days. The format is functional, organism-based. Particulars: time 21.0 day.
Test [6] concerns Mus musculus. As to the kind of experiment: Hypoglycemic effect in ICR mouse treated with 3 g/kg glucose assessed as reduction in blood glucose level at 100 nmol/kg, sc measured upto 120 mins by acute glucose lowering test. Type of test: functional, organism-based.
Another test addresses Glucagon receptor (Homo sapiens, UniProt P47871). Briefly: Agonist activity at human GCGR expressed in HEK293 cells assessed as cAMP level measured after 60 mins by HTRF based assay. The format is functional, cell-based.
For test [7], the target named is T1, Glucagon-like peptide 1 receptor (Homo sapiens, UniProt P43220). Briefly: Agonist activity at human GLP-1 receptor expressed in HEK293 cells assessed as cAMP level measured after 60 mins by HTRF based assay. The format is functional, cell-based. In general terms: cAMP levels reflect the balance of adenylyl cyclase and phosphodiesterase activity.
Test [8] has as its system Mus musculus. As to the kind of experiment: Reduction in serum AST in DIO mouse at 30 nmol/kg, sc treated every 2 and half day once measured after 21 days. The format is functional, organism-based. Particulars: time 21.0 day.
The target of test [9] is T1, Glucagon-like peptide 1 receptor. As to the kind of experiment: Potency index, ratio of Semaglutide EC50 to test compound EC50 for agonist activity at human GLP-1 receptor expressed in HEK293 cells assessed as cAMP level measured after 60 mins by HTRF based assay. Type of test: functional, cell-based. As to conditions: filed as agonist.
Test [10] has as its system Mus musculus. As to the kind of experiment: Reduction in hepatic lipid content in DIO mouse at 30 nmol/kg, sc treated every 2 and half day once measured after 21 days by H and E staining based assay. The format is functional, organism-based. Particulars: time 21.0 day.
The subject of test [11] is Mus musculus. Briefly: Antihyperglycemic effect in DIO mouse assessed as antihyperglycemic duration by measuring blood glucose at 30 nmol/kg, sc measured after 48 hrs by hypoglycemic duration assay. The format is functional, organism-based.
Test [12] relates to Mus musculus. As to the kind of experiment: Hypoglycemic effect in ICR mouse treated with 3 g/kg glucose assessed as reduction in blood glucose level at 30 nmol/kg, sc measured upto 120 mins pretreated with GLP-1R antagonist by OGTT. Type of test: functional, organism-based.
Test [13] relates to Mus musculus. As to the kind of experiment: Reduction in total fat mass in DIO mouse at 30 nmol/kg, sc treated every 2 and half day once measured after 21 days. Particulars: time 21.0 day. Type of test: functional, organism-based.
Test [14] deals with Mus musculus. As to the kind of experiment: Anorexigenic effect in ICR mouse assessed as decrease in food intake at 30 nmol/kg, sc measured at 48 hrs by acute food intake study. The format is functional, organism-based.
Test [15] has as its system Mus musculus. Briefly: Reduction in blood glucose level in non-fasting DIO mouse at 30 nmol/kg, sc treated every 2 and half day once measured after 21 days by glucose tolerance test. The format is functional, organism-based. As to conditions: time 21.0 day.
The subject of test [16] is Mus musculus. As to the kind of experiment: Antihyperglycemic effect in DIO mouse assessed as prolonged antihyperglycemic duration by measuring blood glucose at 100 nmol/kg, sc. The format is functional, organism-based.
Test [17] has as its system Mus musculus. As to the kind of experiment: Reduction in body weight in DIO mouse at 30 nmol/kg, sc treated every 2 and half day once measured after 21 days. Particulars: time 21 day. The format is functional. More on the design: scale not given: the % may be the effect or the level left.
The subject of test [18] is Mus musculus. Briefly: Anorexigenic effect in sc dosed ICR mouse assessed as decrease in food intake measured upto 72 hrs by acute food intake study. The format is functional, organism-based. As to conditions: dose 10-100 nmol/kg.
In test [19] the test system is Mus musculus. As to the kind of experiment: Anorexigenic effect in ICR mouse assessed as decrease in food intake at 10 nmol/kg, sc measured upto 72 hrs by acute food intake study. Type of test: functional, organism-based.
Test [20] deals with Mus musculus. As to the kind of experiment: Reduction in serum triglyceride in DIO mouse at 30 nmol/kg, sc treated every 2 and half day once measured after 21 days. Type of test: functional, organism-based. Particulars: time 21.0 day.
Test [21] deals with Mus musculus. Briefly: Antihyperglycemic effect in non-fasted DIO mouse assessed as decrease in blood glucose at 30 nmol/kg, sc measured upto 48 hrs. Type of test: functional, organism-based.
For test [22], the system named is Mus musculus. As to the kind of experiment: Reduction in total cholesterol in DIO mouse at 30 nmol/kg, sc treated every 2 and half day once measured after 21 days. The format is functional, organism-based. Particulars: time 21.0 day.
The test system of test [23] is Mus musculus. Briefly: Reduction in serum ALT in DIO mouse at 30 nmol/kg, sc treated every 2 and half day once measured after 21 days. The format is functional, organism-based. As to conditions: time 21.0 day.
In test [24] the test system is Mus musculus. As to the kind of experiment: Antihyperglycemic effect in DIO mouse assessed as antihyperglycemic duration by measuring blood glucose at 30 nmol/kg, sc administered twice daily measured by hypoglycemic duration assay. The format is functional, organism-based.

The source made the active and inactive calls. The calls are words filed in the database; no cut-off is given here. Numbered stars: 1 amine (or outer) side, 2 acyl side, 3 side chain; on linkers, the order of the positions; unused ones are H or OH. Square brackets hold non-standard residues; d marks the D form. Side chains are listed from the residue outwards. Peptide text beside a SMILES is read from it. * marks the point of attachment. C18 diacid = O=C(O)CCCCCCCCCCCCCCCCC(=O)*; γGlu = O=C(O)[C@H](CCC(=O)[*:2])N[*:1]; AEEA = NCCOCCOCC(=O)O; Aib = CC(C)(N)C(=O)O

T1 sequence (P43220 whole entry): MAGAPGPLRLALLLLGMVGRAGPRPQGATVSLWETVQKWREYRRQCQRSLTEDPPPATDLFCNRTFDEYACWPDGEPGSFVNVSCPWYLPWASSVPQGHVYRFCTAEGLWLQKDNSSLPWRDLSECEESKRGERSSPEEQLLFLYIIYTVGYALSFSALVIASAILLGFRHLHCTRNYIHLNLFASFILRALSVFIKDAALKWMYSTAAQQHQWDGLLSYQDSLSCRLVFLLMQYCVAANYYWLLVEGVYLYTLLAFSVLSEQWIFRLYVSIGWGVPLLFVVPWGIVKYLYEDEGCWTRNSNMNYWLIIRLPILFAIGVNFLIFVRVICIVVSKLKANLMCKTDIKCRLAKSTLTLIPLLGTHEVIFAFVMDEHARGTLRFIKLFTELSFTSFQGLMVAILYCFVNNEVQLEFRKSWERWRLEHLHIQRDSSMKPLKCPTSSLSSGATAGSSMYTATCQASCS
Glucagon receptor, sequence (P47871 whole entry): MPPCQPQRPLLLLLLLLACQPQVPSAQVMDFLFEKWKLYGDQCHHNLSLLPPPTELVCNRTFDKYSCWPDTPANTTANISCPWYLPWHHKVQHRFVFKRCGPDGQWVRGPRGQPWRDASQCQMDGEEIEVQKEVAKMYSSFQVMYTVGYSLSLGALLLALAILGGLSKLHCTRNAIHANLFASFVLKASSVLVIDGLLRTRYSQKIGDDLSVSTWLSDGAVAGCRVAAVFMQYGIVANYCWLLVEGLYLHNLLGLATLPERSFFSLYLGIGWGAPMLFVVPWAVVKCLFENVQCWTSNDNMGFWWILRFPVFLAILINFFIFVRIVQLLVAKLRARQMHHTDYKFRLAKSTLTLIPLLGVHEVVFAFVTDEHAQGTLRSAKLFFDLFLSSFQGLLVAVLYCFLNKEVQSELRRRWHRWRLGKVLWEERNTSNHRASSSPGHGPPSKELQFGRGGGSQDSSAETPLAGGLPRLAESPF

Regarding `CCCCCCCCCCCCCCCC(=O)N[C@@H](CCC(=O)NCCCC[C@H](NC(=O)[C@H](CC(=O)O)NC(=O)[C@H](CO)NC(=O)[C@@H](NC(=O)[C@H](Cc1ccccc1)NC(=O)[C@@H](NC(=O)CNC(=O)[C@H](CCC(N)=O)NC(=O)[C@H](CO)NC(=O)[C@@H](N)Cc1c[nH]cn1)[C@@H](C)O)[C@@H](C)O)C(=O)N[C@@H](CO)C(=O)N[C@@H](CCC(=O)O)C(=O)N[C@@H](Cc1ccc(O)cc1)C(=O)N[C@@H](CC(C)C)C(=O)N[C@@H](CC(=O)O)C(=O)N[C@@H](CO)C(=O)N[C@@H](CCC(=O)O)C(=O)N[C@@H](CCCNC(=N)N)C(=O)N[C@@H](C)C(=O)N[C@@H](CCCNC(=N)N)C(=O)N[C@@H](CC(=O)O)C(=O)N[C@@H](Cc1ccccc1)C(=O)N[C@H](C(=O)N[C@@H](C)C(=O)N[C@@H](Cc1c[nH]c2ccccc12)C(=O)N[C@@H](CC(C)C)C(=O)N[C@@H](CCC(=O)O)C(=O)N[C@@H](C)C(=O)NCC(=O)NCC(=O)O)C(C)C)C(=O)O` [COTADUTIDE], the result with Mus musculus [1], in the test with Mus musculus [2], with Mus musculus [4], with Mus musculus [5] and in the test with Mus musculus [6] was Active. Besides, the Activity in the test with Mus musculus [3] is recorded as roughly 24.6%. The figures for the EC50 (on Glucagon receptor; in test [7]) were 0.17 nM and 0.075 nM, respectively.
For the compound `CC[C@H](C)[C@H](NC(=O)[C@H](CC(C)C)NC(=O)[C@H](Cc1c[nH]c2ccccc12)NC(=O)[C@H](CC(=O)O)NC(=O)[C@@H](NC(=O)[C@H](Cc1ccccc1)NC(=O)[C@H](CCC(=O)O)NC(=O)[C@H](CCCCNC(=O)COCCOCCNC(=O)COCCOCCNC(=O)CC[C@H](NC(=O)CCCCCCCCCCCCCCCCC(=O)O)C(=O)O)NC(=O)[C@H](C)NC(=O)[C@H](C)NC(=O)[C@H](CCC(=O)O)NC(=O)[C@H](CCC(=O)O)NC(=O)[C@H](CCC(=O)O)NC(=O)[C@H](CC(C)C)NC(=O)[C@H](Cc1ccc(O)cc1)NC(=O)[C@H](CO)NC(=O)[C@H](CO)NC(=O)[C@H](CCSC)NC(=O)[C@H](CC(=O)O)NC(=O)[C@H](CO)NC(=O)[C@@H](NC(=O)[C@H](Cc1ccccc1)NC(=O)[C@@H](NC(=O)CNC(=O)[C@H](CC(=O)O)NC(=O)C(C)(C)NC(=O)[C@@H](N)Cc1c[nH]cn1)[C@@H](C)O)[C@@H](C)O)C(C)C)C(=O)N[C@@H](CCCCN)C(=O)NCC(=O)N[C@@H](CCCNC(=N)N)C(=O)N1CCC[C@H]1C(=O)N[C@@H](C)C(N)=O` (H-H[Aib]DGTFTSDMSSYLEEEAAK([AEEA-AEEA-γGlu-C18 diacid])EFVDWLIKGRPA-NH2), the outcome in the test with Mus musculus [8], with Mus musculus [10], in the test with Mus musculus [11], in the test on Mus musculus [13], with Mus musculus [14] and in the test on Mus musculus [15] was Active. Also, the outcome with Mus musculus [16], with Mus musculus [4], with Mus musculus [6], in the test on Mus musculus [19], in the test with Mus musculus [20] and in the test on Mus musculus [21] was Active. The result in the test on Mus musculus [22], with Mus musculus [23] and in the test with Mus musculus [24] was Active. Further, the Ratio EC50 in test [9] turned out to be 2.8. Also, in the test on Mus musculus [12], the result was inactive. Further, the Activity in the test with Mus musculus [17] is 24.9%; with Mus musculus [18], “Dose-Dependent Effect”. Besides, in test [7], the EC50 is 0.019 nM.

A word on the EC50: it is the concentration needed to bring the measured effect to its halfway point.
